Measurements as given in ChEMBL document CHEMBL3804786, “Novel 1,3-thiazolidin-4-one derivatives as promising anti-Candida agents endowed with anti-oxidant and chelating properties” (Eur J Med Chem, 2016).
Converted amounts (≈) assume the structure as drawn.

Assays:
[1] = test system: Proteus mirabilis; experiment: Antibacterial activity against Proteus mirabilis clinical isolate after 18 to 22 hrs by broth microdilution method; assay type: functional
[2] = test system: Candida tropicalis; experiment: Antifungal activity against Candida tropicalis clinical isolate after 24 hrs by broth microdilution method; assay type: functional
[3] = test system: Enterobacter sp.; experiment: Antibacterial activity against Enterobacter spp. clinical isolate after 18 to 22 hrs by broth microdilution method; assay type: functional
[4] = test system: Escherichia coli; experiment: Antibacterial activity against Escherichia coli after clinical isolate 18 to 22 hrs by broth microdilution method; assay type: functional
[5] = test system: Streptococcus sp. (viridans group); experiment: Antibacterial activity against Streptococcus alpha-hemolyticus clinical isolate after 18 to 22 hrs by broth microdilution method
[6] = test system: Klebsiella oxytoca; experiment: Antibacterial activity against Klebsiella oxytoca clinical isolate after 18 to 22 hrs by broth microdilution method; assay type: functional
[7] = test system: Candida albicans; experiment: Antifungal activity against Candida albicans clinical isolate after 24 hrs by broth microdilution method; assay type: functional
[8] = test system: [Candida] sake; experiment: Antifungal activity against Candida sake clinical isolate after 24 hrs by broth microdilution method; assay type: functional; conditions: Fermentozyma sake
[9] = test system: Enterococcus faecalis; experiment: Antibacterial activity against Streptococcus faecalis clinical isolate after 18 to 22 hrs by broth microdilution method; assay type: functional
[10] = test system: Candida parapsilosis; experiment: Antifungal activity against Candida parapsilosis clinical isolate after 24 hrs by broth microdilution method; assay type: functional; conditions: Lodderomyces parapsilosis
[11] = test system: Staphylococcus warneri; experiment: Antibacterial activity against Staphylococcus warneri clinical isolate after 18 to 22 hrs by broth microdilution method; assay type: functional
[12] = test system: Staphylococcus aureus; experiment: Antibacterial activity against Staphylococcus aureus clinical isolate after 18 to 22 hrs by broth microdilution method; assay type: functional
[13] = test system: Nakaseomyces glabratus; experiment: Antifungal activity against Candida glabrata clinical isolate after 24 hrs by broth microdilution method; assay type: functional
[14] = test system: Pichia kudriavzevii; experiment: Antifungal activity against Candida krusei clinical isolate after 24 hrs by broth microdilution method; assay type: functional

| Compound | MIC [1] [µg/mL] | MIC [2] [µg/mL] | MIC [3] [µg/mL] | MIC [4] [µg/mL] | MIC [5] [µg/mL] | MIC [6] [µg/mL] | MIC [7] [µg/mL] | MIC [8] [µg/mL] | MIC [9] [µg/mL] | MIC [10] [µg/mL] | MIC [11] [µg/mL] | MIC [12] [µg/mL] | MIC [13] [µg/mL] | MIC [14] [µg/mL] |
| --- | --- | --- | --- | --- | --- | --- | --- | --- | --- | --- | --- | --- | --- | --- |
| CC(C)=N/N=C1\SCC(=O)N1Cc1ccccc1F | > 256 | 4 (≈ 14.3 µM) | > 256 | > 256 | > 256 | > 256 | 8 (≈ 28.6 µM) | 8 (≈ 28.6 µM) | > 256 | 4 (≈ 14.3 µM) | > 256 | > 256 | 2 (≈ 7.16 µM) | 8 (≈ 28.6 µM) |
| C/C(=N\N=C1/SCC(=O)N1Cc1ccccc1F)c1ccccn1 | > 256 | 4 (≈ 11.7 µM) | > 256 | > 256 | > 256 | > 256 | 4 (≈ 11.7 µM) | 8 (≈ 23.4 µM) | > 256 | 4 (≈ 11.7 µM) | > 256 | > 256 | 8 (≈ 23.4 µM) | 4 (≈ 11.7 µM) |
| CC(C)=N/N=C1\SCC(=O)N1Cc1ccc(Cl)cc1 | > 256 | 8 (≈ 27 µM) | > 256 | > 256 | > 256 | > 256 | 4 (≈ 13.5 µM) | 4 (≈ 13.5 µM) | > 256 | 2 (≈ 6.76 µM) | > 256 | > 256 | 2 (≈ 6.76 µM) | 8 (≈ 27 µM) |
| C/C(=N\N=C1/SCC(=O)N1Cc1cccc(F)c1)c1ccccn1 | > 256 | 8 (≈ 23.4 µM) | > 256 | > 256 | > 256 | > 256 | 2 (≈ 5.84 µM) | 4 (≈ 11.7 µM) | > 256 | 2 (≈ 5.84 µM) | > 256 | > 256 | 2 (≈ 5.84 µM) | 8 (≈ 23.4 µM) |
| C/C(=N\N=C1/SCC(=O)N1Cc1ccccc1Cl)c1cccs1 | > 256 | 2 (≈ 5.5 µM) | > 256 | > 256 | > 256 | > 256 | 4 (≈ 11 µM) | 8 (≈ 22 µM) | > 256 | 8 (≈ 22 µM) | > 256 | > 256 | 4 (≈ 11 µM) | 8 (≈ 22 µM) |
| CC(C)=N/N=C1\SCC(=O)N1Cc1ccccc1Cl | > 256 | 16 (≈ 54.1 µM) | > 256 | > 256 | > 256 | > 256 | 2 (≈ 6.76 µM) | 2 (≈ 6.76 µM) | > 256 | 8 (≈ 27 µM) | > 256 | > 256 | 2 (≈ 6.76 µM) | 8 (≈ 27 µM) |
| CC(C)=N/N=C1\SCC(=O)N1Cc1cccc(F)c1 | > 256 | 4 (≈ 14.3 µM) | > 256 | > 256 | > 256 | > 256 | 4 (≈ 14.3 µM) | 8 (≈ 28.6 µM) | > 256 | 2 (≈ 7.16 µM) | > 256 | > 256 | 4 (≈ 14.3 µM) | 4 (≈ 14.3 µM) |
| O=C1CS/C(=N\N=C2CCCC2)N1Cc1cccc(F)c1 | > 256 | 16 (≈ 52.4 µM) | > 256 | > 256 | > 256 | > 256 | 4 (≈ 13.1 µM) | 8 (≈ 26.2 µM) | > 256 | 4 (≈ 13.1 µM) | > 256 | > 256 | 2 (≈ 6.55 µM) | 2 (≈ 6.55 µM) |
| CC(C)=N/N=C1\SCC(=O)N1Cc1ccc(F)cc1 | > 256 | 16 (≈ 57.3 µM) | > 256 | > 256 | > 256 | > 256 | 8 (≈ 28.6 µM) | 8 (≈ 28.6 µM) | > 256 | 2 (≈ 7.16 µM) | > 256 | > 256 | 4 (≈ 14.3 µM) | 16 (≈ 57.3 µM) |
| O=C1CS/C(=N\N=C2CCCC2)N1Cc1cccc([N+](=O)[O-])c1 | > 256 | 4 (≈ 12 µM) | > 256 | > 256 | > 256 | > 256 | 4 (≈ 12 µM) | 2 (≈ 6.02 µM) | > 256 | 4 (≈ 12 µM) | > 256 | > 256 | 16 (≈ 48.1 µM) | 8 (≈ 24.1 µM) |
| C/C(=N\N=C1/SCC(=O)N1Cc1cccc([N+](=O)[O-])c1)c1ccccn1 | > 256 | 8 (≈ 21.7 µM) | > 256 | > 256 | > 256 | > 256 | 4 (≈ 10.8 µM) | 4 (≈ 10.8 µM) | > 256 | 8 (≈ 21.7 µM) | > 256 | > 256 | 2 (≈ 5.41 µM) | 8 (≈ 21.7 µM) |
| O=C1CS/C(=N\N=C2CCCC2)N1Cc1ccc(F)cc1 | > 256 | 16 (≈ 52.4 µM) | > 256 | > 256 | > 256 | > 256 | 8 (≈ 26.2 µM) | 8 (≈ 26.2 µM) | > 256 | 2 (≈ 6.55 µM) | > 256 | > 256 | 4 (≈ 13.1 µM) | 8 (≈ 26.2 µM) |
| CC(C)=N/N=C1\SCC(=O)N1Cc1cccc(Cl)c1 | > 256 | 2 (≈ 6.76 µM) | > 256 | > 256 | > 256 | > 256 | 8 (≈ 27 µM) | 4 (≈ 13.5 µM) | > 256 | 4 (≈ 13.5 µM) | > 256 | > 256 | 4 (≈ 13.5 µM) | 2 (≈ 6.76 µM) |
| O=C1CS/C(=N\N=C2CCCC2)N1Cc1ccccc1Cl | > 256 | 4 (≈ 12.4 µM) | > 256 | > 256 | > 256 | > 256 | 2 (≈ 6.21 µM) | 2 (≈ 6.21 µM) | > 256 | 8 (≈ 24.9 µM) | > 256 | > 256 | 4 (≈ 12.4 µM) | 8 (≈ 24.9 µM) |
| O=C1CS/C(=N\N=C2CCCC2)N1Cc1cccc(Cl)c1 | > 256 | 8 (≈ 24.9 µM) | > 256 | > 256 | > 256 | > 256 | 4 (≈ 12.4 µM) | 2 (≈ 6.21 µM) | > 256 | 4 (≈ 12.4 µM) | > 256 | > 256 | 4 (≈ 12.4 µM) | 16 (≈ 49.7 µM) |
| C/C(=N\N=C1/SCC(=O)N1Cc1cccc([N+](=O)[O-])c1)c1cccs1 | > 256 | 4 (≈ 10.7 µM) | > 256 | > 256 | > 256 | > 256 | 4 (≈ 10.7 µM) | 4 (≈ 10.7 µM) | > 256 | 8 (≈ 21.4 µM) | > 256 | > 256 | 2 (≈ 5.34 µM) | 2 (≈ 5.34 µM) |
| C/C(=N/N=C1\SCC(=O)N1Cc1ccccc1[N+](=O)[O-])c1ccccn1 | > 256 | 4 (≈ 10.8 µM) | > 256 | > 256 | > 256 | > 256 | 2 (≈ 5.41 µM) | 2 (≈ 5.41 µM) | > 256 | 16 (≈ 43.3 µM) | > 256 | > 256 | 2 (≈ 5.41 µM) | 4 (≈ 10.8 µM) |
| C/C(=N\N=C1/SCC(=O)N1Cc1ccccc1Cl)c1ccccn1 | > 256 | 2 (≈ 5.57 µM) | > 256 | > 256 | > 256 | > 256 | 4 (≈ 11.1 µM) | 4 (≈ 11.1 µM) | > 256 | 8 (≈ 22.3 µM) | > 256 | > 256 | 4 (≈ 11.1 µM) | 4 (≈ 11.1 µM) |
| O=C1CS/C(=N\N=C2CCCC2)N1Cc1ccccc1[N+](=O)[O-] | > 256 | 8 (≈ 24.1 µM) | > 256 | > 256 | > 256 | > 256 | 4 (≈ 12 µM) | 4 (≈ 12 µM) | > 256 | 16 (≈ 48.1 µM) | > 256 | > 256 | 2 (≈ 6.02 µM) | 4 (≈ 12 µM) |
| C[C@@H]1[C@H](O)[C@@H](C)/C=C/C=C/C=C/C=C/C=C/C=C/C=C/[C@H](O[C@@H]2O[C@H](C)[C@@H](O)[C@H](N)[C@@H]2O)C[C@@H]2O[C@](O)(C[C@@H](O)C[C@@H](O)[C@H](O)CC[C@@H](O)C[C@@H](O)CC(=O)O[C@H]1C)C[C@H](O)[C@H]2C(=O)O [AMPHOTERICIN B] | – | 2 (≈ 2.16 µM) | – | – | – | – | 4 (≈ 4.33 µM) | 2 (≈ 2.16 µM) | – | 2 (≈ 2.16 µM) | – | – | 4 (≈ 4.33 µM) | 4 (≈ 4.33 µM) |
| CC(C)(O/N=C(\C(=O)N[C@@H]1C(=O)N2C(C(=O)[O-])=C(C[n+]3ccccc3)CS[C@H]12)c1csc(N)n1)C(=O)O [CEFTAZIDIME] | 8 (≈ 14.6 µM) | – | 8 (≈ 14.6 µM) | 4 (≈ 7.32 µM) | 4 (≈ 7.32 µM) | 8 (≈ 14.6 µM) | – | – | 4 (≈ 7.32 µM) | – | 4 (≈ 7.32 µM) | 2 (≈ 3.66 µM) | – | – |
| OC(Cn1cncn1)(Cn1cncn1)c1ccc(F)cc1F [FLUCONAZOLE] | – | 2 (≈ 6.53 µM) | – | – | – | – | 2 (≈ 6.53 µM) | 2 (≈ 6.53 µM) | – | 2 (≈ 6.53 µM) | – | – | 2 (≈ 6.53 µM) | 2 (≈ 6.53 µM) |
| CC(=O)N1CCN(c2ccc(OCC3COC(Cn4ccnc4)(c4ccc(Cl)cc4Cl)O3)cc2)CC1 (centres undefined) [KETOCONAZOLE] | – | 2 (≈ 3.76 µM) | – | – | – | – | 2 (≈ 3.76 µM) | 4 (≈ 7.53 µM) | – | 2 (≈ 3.76 µM) | – | – | 2 (≈ 3.76 µM) | 4 (≈ 7.53 µM) |
| Clc1ccc(COC(Cn2ccnc2)c2ccc(Cl)cc2Cl)c(Cl)c1 (centres undefined) [MICONAZOLE] | – | 2 (≈ 4.81 µM) | – | – | – | – | 2 (≈ 4.81 µM) | 2 (≈ 4.81 µM) | – | 4 (≈ 9.61 µM) | – | – | 4 (≈ 9.61 µM) | 4 (≈ 9.61 µM) |
| Clc1ccc(C(Cn2ccnc2)OCc2ccsc2Cl)c(Cl)c1 (centres undefined) [TIOCONAZOLE] | – | 8 (≈ 20.6 µM) | – | – | – | – | 8 (≈ 20.6 µM) | 4 (≈ 10.3 µM) | – | 8 (≈ 20.6 µM) | – | – | 4 (≈ 10.3 µM) | 8 (≈ 20.6 µM) |
